According to patent US6500669B1, “Programmable genotoxic agents and uses therefor” (Massachusetts Institute of Technology, priority 1994, dated 2002):
Where two headings read alike, the source gives them in different places.

What was measured:
estrogen receptor (ER) [1] = target: T1, estrogen receptor (ER) (Bos taurus, UniProt P49884); format: binding, calf
T1 construct: uterine cytosol was prepared by homogenizing calf uteri; from tissue; host or cells: calf uterus, cytosol (105,000 g supernatant)
T1 sequence (P49884 1-596): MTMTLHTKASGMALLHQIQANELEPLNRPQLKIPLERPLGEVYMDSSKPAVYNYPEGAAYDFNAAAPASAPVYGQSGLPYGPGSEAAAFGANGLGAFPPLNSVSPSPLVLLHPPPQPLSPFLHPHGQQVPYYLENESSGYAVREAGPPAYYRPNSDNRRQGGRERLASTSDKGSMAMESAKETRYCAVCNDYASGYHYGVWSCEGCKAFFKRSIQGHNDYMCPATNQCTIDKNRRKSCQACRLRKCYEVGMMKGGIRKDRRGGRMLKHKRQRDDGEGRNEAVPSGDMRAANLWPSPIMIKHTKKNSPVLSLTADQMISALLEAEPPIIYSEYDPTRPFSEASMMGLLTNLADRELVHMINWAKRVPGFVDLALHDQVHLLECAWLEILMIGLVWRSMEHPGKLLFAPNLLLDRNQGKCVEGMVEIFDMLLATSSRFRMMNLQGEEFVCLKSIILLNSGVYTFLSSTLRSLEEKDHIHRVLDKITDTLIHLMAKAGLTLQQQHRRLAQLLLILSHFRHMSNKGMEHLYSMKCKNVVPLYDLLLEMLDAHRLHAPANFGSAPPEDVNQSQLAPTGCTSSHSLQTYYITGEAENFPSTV

[2] = system: MCF-7 and MDA-MB-231 cells; assay: Methylene blue dye binding growth assay in breast tumor cell lines; format: cell-based, human; conditions: ED50 = concentration that inhibits cell growth by 50%
Method: The toxicities of the preferred 2-phenylindole-C6NC2-mustard and homologous ligand decoy compounds for selected cells distinguished phenotypically from nonselected cells by expression of ER were tested using the human breast tumor cell lines, MCF-7 and MDA-MB-231, according to the guidelines set forth in Example 10 (above). The MCF-7 cell line expresses the estrogen receptor protein, while no ER protein can be detected in the MDA-MB-231 cell line.
Both cell lines were routinely cultured in Minimal Essential Medium (MEM) supplemented with 2 mM gluatamine, 1 mM sodium pyruvate and 10% fetal calf serum. To determine the toxicity of test compounds, cells were trypsinized and plated in 100 μl of media in 96-well microtiter plates at the following densities: MCF-7, 2000 cells/well; MDA-MB-231, 1000 cells/well. Cells were allowed to grow for 24 hours in the 96-well plates prior to treatment with the compounds. […]
Each treatment condition was conducted in replicates of 8 wells. […] On day 4, cell growth in treated and control cultures was determined using the methylene blue dye binding assay.
A dye-binding assay as described by Finlay et al. (1984), 139 Anal. Biochem. 272 was used to assess the cytotoxic effects of 2-phenylindole-C6NC2-mustard and homologous ligand decoy compounds. […] The absorbance of the solubilized dye was read at 620 nm in a Ceres 9000 plate reader (Biotek).

estrogen receptor (ER) [3] = target: T1, estrogen receptor (ER); assay: In vitro [3H]E2 competition assay, calf uterine extracts, free compounds; format: binding; conditions: free compound
Method: Assays were performed by premixing a range of concentrations of the test compound with a fixed amount of tritium labeled estradiol ([^3H]E2). Calf uterine cytosol was then added. After incubation overnight at 4° C., activated charcoal/dextran was added to remove unbound [^3H]E2. Following centrifugation to remove the charcoal/dextran, levels of bound (i.e., non-competed) [^3H]E2 were determined by liquid scintillation spectrometry. Low concentrations of test compound required to abolish [^3H]E2 binding in this assay indicate a tight association between the test compound and the ER.

[4] = system: HeLa 36 (ER+) and HeLa 7 (ER-) cells; assay: Methylene blue dye binding toxicity assay in HeLa ER transformants
hUBF = target: T2, hUBF (Homo sapiens, UniProt P17480); assay: Southwestern blotting of hUBF with platinated DNA probes; format: binding; conditions: southwestern and western blot; DNA globally modified by the platinum compound
T2 construct: made in house; host or cells: in vitro transcription and translation (cell-free) from plasmid pTbGUBF1
T2 sequence (P17480 1-764): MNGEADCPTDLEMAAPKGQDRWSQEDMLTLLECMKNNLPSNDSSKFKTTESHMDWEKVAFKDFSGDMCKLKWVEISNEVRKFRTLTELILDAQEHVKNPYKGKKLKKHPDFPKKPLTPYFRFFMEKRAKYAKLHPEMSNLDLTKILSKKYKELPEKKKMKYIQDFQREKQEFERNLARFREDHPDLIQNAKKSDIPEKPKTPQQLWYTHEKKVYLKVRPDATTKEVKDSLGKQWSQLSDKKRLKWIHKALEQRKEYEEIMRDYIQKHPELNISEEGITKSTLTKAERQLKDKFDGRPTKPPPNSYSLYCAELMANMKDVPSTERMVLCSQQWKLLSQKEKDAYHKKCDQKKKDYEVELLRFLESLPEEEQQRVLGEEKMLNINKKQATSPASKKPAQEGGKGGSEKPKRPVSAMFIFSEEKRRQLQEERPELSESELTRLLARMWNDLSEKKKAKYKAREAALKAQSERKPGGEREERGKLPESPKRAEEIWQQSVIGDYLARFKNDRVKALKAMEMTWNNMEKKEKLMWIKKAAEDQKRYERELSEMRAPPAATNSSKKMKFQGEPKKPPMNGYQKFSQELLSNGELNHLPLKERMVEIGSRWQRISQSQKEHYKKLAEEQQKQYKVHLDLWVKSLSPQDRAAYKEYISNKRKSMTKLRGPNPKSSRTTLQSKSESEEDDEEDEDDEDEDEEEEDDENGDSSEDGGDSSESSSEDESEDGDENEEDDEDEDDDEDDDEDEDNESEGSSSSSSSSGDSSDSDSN
Method: Probe Preparation. The DNA probe used for southwestern blotting was a 422 base pair (bp) AvaI restriction fragment excised from M13mp19 replicative form DNA. Platinated probes were prepared by treating the AvaI-digested DNA with cisplatin or trans-DDP, and the formal bound drug/nucleotide ratios (rb) were determined by using atomic absorption spectroscopy as described in Donahue et al. (1990), 29 Biochemistry 5872-5880.
Western and Southwestern Blotting Technique. HeLa whole cell extracts (WCE) were prepared by the sonication procedure of Samson et al. (1986), 83 Proc. Natl. Acad. Sci. U.S.A. 5607-5610. The 97 kDa hUBF species was synthesized by in vitro transcription and translation from the plasmid pTbGUBF1 as reported in Jantzen et al. (1992), 6 Genes & Dev. 1950-1963. In vitro translated hUBF was quantitated by the incorporation of ^35S-methionine. Protein samples ([…] WCE or 8 ng hUBF) were resolved on 5-15% gradient SDS polyacrylamide gels and transferred to nitrocellulose membranes. Parallel blots of HeLa whole cell extracts (WCE) and in vitro translated hUBF (hUBF) were probed with various ^32P labeled DNA fragments (southwestern analysis, panels A-C of FIG. 2) or antiserum against hUBF (Anti-NOR-90) (panel D of FIG. 2). For southwestern analysis, the air dried membranes were processed as reported in Toney et al. (1989), 86 Proc. Natl. Acad. Sci. U.S.A. 8328-8332. […]

Compound: O=C(NCCCc1ccc(N(CCCl)CCCl)cc1)OCCNCCCCCCn1c(-c2ccc(O)cc2)cc2cc(O)ccc21 [2-phenylindole-C6NC2-mustard]
- affinity of DNA lesions formed by the compound for ER (estrogen receptor (ER) [1]): compete effectively
- ED50 in MCF-7 relative to ED50 in MDA-MB-231 [2]: two- to three-fold lower
- affinity for the ER relative to estradiol (E2) (estrogen receptor (ER) [3]; calf uterine cytosol): ≤ 20 fold
- affinity for the ER (in words) (estrogen receptor (ER) [3]; competition with [3H]E2): highest affinity
- differential in toxicity between HeLa 36 and HeLa 7 ([4]; 4 hr. exposure, 2.5 μM dose): approximately a two-fold differential
- cytotoxicity in HeLa 36 cells relative to HeLa 7 cells ([4]; 4 hr. exposure, 5 μM dose): four- to five-fold greater cytotoxicity
- effect in HeLa 36 cells relative to HeLa 7 cells ([4]; 4 day exposure): selectively toxic and growth inhibitory effect

Compound: O=C(O)CCCc1ccc(N(CCCl)CCCl)cc1 [chlorambucil, reference compound]
- affinity of DNA lesions formed by the compound for ER (estrogen receptor (ER) [1]; isolated DNA lesioned with compound, competition with E2): no affinity

Compound: N.N.[Cl][Pt][Cl] [cisplatin, cis-diamminedichloro-platinum(II)]
- binding of in vitro translated hUBF to drug-modified DNA (hUBF): bound

Compound: N.N.[Cl][Pt][Cl] [trans-DDP, trans-Diamminedichloroplatinum (II)]
- binding of in vitro translated hUBF to drug-modified DNA (hUBF): failed to recognize
